Reference: patent US9216173B2, “2-Pyridyl carboxamide-containing spleen tyrosine kinase (SYK) inhibitors” (Merck Sharp & Dohme Corp., priority 2011, dated 2015)
Read-outs that look alike come from different tables or passages of the source.

Biological target: T1, recombinant human GST-SYK (Homo sapiens, UniProt P43405)
T1 construct: purchased Carna Biosciences 08-176
Experiment: Homogeneous Time-Resolved Fluorescence (HTRF) assay for the recombinant human Syk enzyme
Format: biochemical
Settings: GST-hSYK 5 pM, ATP 25 μM, 10-dose titration 10 μM to 0.508 nM
Method: Homogeneous Time-Resolved Fluorescence (HTRF) Assay for the Recombinant Human Syk Enzyme
A recombinant GST-hSYK fusion protein was used to measure potency of compounds to inhibit human Syk activity. […] Final volume of the reaction was 10 μL. Phosphorylation of the peptide was allowed to proceed for 45 minutes at room temperature. To quench the reaction and detect the phosphorylated product, 2 nM of a Europium-anti-phosphotyrosine antibody (Perkin Elmer #AD0161) and 70 nM SA-APC (Perkin-Elmer #CR130-100) were added together in 15 mM Tris pH 7.5, 40 mM EDTA, 0.01% tween 20. Final volume of the quenching solution was 10 μL. The resulting HTRF signal was measured after 30 minutes on an EnVision (Perkin-Elmer) reader using a time-resolved fluorescence protocol.

[1] = read-out: rhSYK Activity (IC50 rating)

Row | SMILES | IC50 [1] [µM] | IC50 (read-out: IC50) [µM]
1 | Cn1ccc(Nc2cc(N[C@@H]3CS(=O)(=O)CC[C@@H]3N)cnc2C(N)=O)n1 (relative stereo) [Example 1.89, rel-5-{[(3S,4S)-4-amino-1,1-dioxidotetrahydro-2H-thiopyran-3-yl]amino}-3-[(1-methyl-1H-pyrazol-3-yl)amino]pyridine-2-carboxamide] | 0.1 to 1 | 0.34
2 | NC(=O)c1ncc(N[C@@H]2CS(=O)(=O)CC[C@@H]2N)cc1Nc1ccn(-c2ccc(F)cc2)n1 (relative stereo) [Example 1.90, rel-5-{[(3S,4S)-4-amino-1,1-dioxidotetrahydro-2H-thiopyran-3-yl]amino}-3-{[1-(4 fluorophenyl)-1H-pyrazol-3-yl]amino}pyridine-2-carboxamide] | < 0.01 | –
3 | CCc1cccc(Nc2cc(N[C@@H]3CS(=O)(=O)CC[C@@H]3N)cnc2C(N)=O)n1 (relative stereo) [Example 1.91, rel-5-{[(3S,4S)-4-amino-1,1-dioxidotetrahydro-2H-thiopyran-3-yl]amino}-3-[(6-ethylpyridin-2-yl)amino]pyridine-2 carboxamide] | < 0.01 | –
4 | Cc1cc(C)nc(Nc2cc(N[C@H]3CC[C@@H]3N)cnc2C(N)=O)c1 (relative stereo) [Example 1.116, rel-5-{[(1S,2S)-2-aminocyclobutyl]amino}-3-[(4,6-dimethylpyridin-2-yl)amino]pyridine-2-carboxamide] | 0.01 to 0.1 | 0.055
5 | Cc1cc(C)nc(Nc2cc(N[C@H]3CS(=O)(=O)C[C@@H]3N)cnc2C(N)=O)c1 (relative stereo) [Example 2.6, rel-5-{[(3R,4R)-4-amino-1,1-dioxidotetrahydrothiophen-3-yl]amino}-3-[(4,6-dimethylpyridin-2-yl)amino]pyridine-2-carboxamide] | 0.1 to 1 | –
6 | Cc1cc(C)nc(Nc2cc(N[C@@H]3C[C@H]3N)cnc2C(N)=O)c1 (relative stereo) [Example 2.13, rel-5-{[(1R,2R)-2-aminocyclopropyl]amino}-3-[(4,6-dimethylpyridin-2-yl)amino]pyridine-2-carboxamide] | 0.1 to 1 | 0.77
7 | Cc1cc(C)nc(Nc2cc(NC[C@H](C)N)cnc2C(N)=O)c1 [Example 1.3, 5-{[(2S)-2-aminopropyl]amino}-3-[(4,6-dimethylpyridin-2-yl)amino]pyridine-2-carboxamide] | < 0.01 | –
8 | Cc1cccc(Nc2cc(NCCN)cnc2C(N)=O)n1 [Example 1.4, 5-[(2-aminoethyl)amino]-3-[(6-methylpyridin-2-yl)amino]pyridine-2-carboxamide] | 0.01 to 0.1 | –
9 | Cc1cc(C)nc(Nc2cc(NCCN)cnc2C(N)=O)c1 [Example 1.5, 5-[(2-aminoethyl)amino]-3-[(4,6-dimethylpyridin-2-yl)amino]pyridine-2-carboxamide] | < 0.01 | –
10 | Cc1nc(Nc2cc(NC[C@H](C)N)cnc2C(N)=O)ccc1-c1cn(C)cn1 [Example 1.10, 5-{[(2S)-2-aminopropyl]amino}-3-{[6-methyl-5-(1-methyl-1H-imidazol-4-yl)pyridin-2-yl]amino}pyridine-2-carboxamide] | < 0.01 | –
11 | NC(=O)c1ncc(N[C@@H]2CCCC[C@@H]2N)cc1Nc1ccn(-c2ccccc2)n1 [Example 1.14, 5-{[(1R,2S)-2-aminocyclohexyl]amino}-3-[(1-phenyl-1H-pyrazol-3-yl)amino]pyridine-2-carboxamide] | < 0.01 | –
12 | NC(=O)c1ncc(N[C@@H]2CCCC[C@@H]2N)cc1Nc1cccc(-c2ccc3c(c2)OCCO3)n1 [Example 1.16, 5-{[(1R,2S)-2-aminocyclohexyl]amino}-3-{[6-(2,3-dihydro-1,4-benzodioxin-6-yl)pyridin-2-yl]amino}pyridine-2-carboxamide] | < 0.01 | –
13 | Cc1cc(C)nc(Nc2cc(NC(C)(C)CN)cnc2C(N)=O)c1 [Example 1.19, 5-[(2-amino-1,1-dimethylethyl)amino]-3-[(4,6-dimethylpyridin-2-yl)amino]pyridine-2-carboxamide] | 0.01 to 0.1 | –
14 | Cc1cc(C)nc(Nc2cc(NC(CN)c3ccccc3)cnc2C(N)=O)c1 (centres unmarked) [Example 1.21, 5-[(2-amino-1-phenylethyl)amino]-3-[(4,6-dimethylpyridin-2-yl)amino]pyridine-2-carboxamide] | < 0.01 | –
15 | Cc1cc(C)nc(Nc2cc(NC(CN)c3ccccc3)cnc2C(N)=O)c1 (centres unmarked) [Example 1.22, 5-[(2-amino-1-phenylethyl)amino]-3-[(4,6-dimethylpyridin-2-yl)amino]pyridine-2-carboxamide] | < 0.01 | –
16 | Cc1cc(C)nc(Nc2cc(NC(CN)c3ccccc3)cnc2C(N)=O)c1 (centres unmarked) [Example 1.23, 5-[(2-amino-1-phenylethyl)amino]-3-[(4,6-dimethylpyridin-2-yl)amino]pyridine-2-carboxamide] | 0.01 to 0.1 | –
17 | Cc1cc(C)nc(Nc2cc(NCC3(N)CCS(=O)(=O)CC3)cnc2C(N)=O)c1 [Example 1.29, 5-{[(4-amino-1,1-dioxidotetrahydro-2H-thiopyran-4-yl)methyl]amino}-3-[(4,6-dimethylpyridin-2-yl)amino]pyridine-2-carboxamide] | 0.01 to 0.1 | –
18 | Cc1cc(C)nc(Nc2cc(NC(C)CN)cnc2C(N)=O)c1 (centres unmarked) [Example 1.30, 5-[(2-amino-1-methylethyl)amino]-3-[(4,6-dimethylpyridin-2-yl)amino]pyridine-2-carboxamide] | < 0.01 | –

Continued, values first:

Row | IC50 [1] [µM] | IC50 (read-out: IC50) [µM] | SMILES
19 | < 0.01 | – | Cc1cc(C)nc(Nc2cc(N[C@@H]3CCC[C@@H]3N)cnc2C(N)=O)c1 (relative stereo) [Example 1.18, rel-5-{[(1R,2S)-2-aminocyclopentyl]amino}-3-[(4,6-dimethylpyridin-2-yl)amino]pyridine-2-carboxamide]
20 | 0.01 to 0.1 | – | Cc1cc(C)nc(Nc2cc(N[C@H]3CCC[C@H]3N)cnc2C(N)=O)c1 (single isomer, unassigned) [Example 1.25]
21 | < 0.01 | – | Cc1cc(C)nc(Nc2cc(N[C@H]3CCC[C@H]3N)cnc2C(N)=O)c1 (single isomer, unassigned) [Example 1.26]
22 | < 0.01 | 0.00053 | Cc1ccc(Nc2cc(N[C@@H]3CCCC[C@@H]3N)cnc2C(N)=O)nc1C [Example 1.6, 5-{[(1R,2S)-2-aminocyclohexyl]amino}-3-[(5,6-dimethylpyridin-2-yl)amino)pyridine-2-carboxamide]
23 | < 0.01 | – | Cc1cccc(Nc2cc(N[C@@H]3CCCC[C@@H]3N)cnc2C(N)=O)n1 [Example 1.7, 5-{[(1R,2S)-2-aminocyclohexyl]amino}-3-[(6-methylpyridin-2-yl)amino]pyridine-2-carboxamide]
24 | < 0.01 | – | NC(=O)c1ncc(N[C@@H]2CCCC[C@@H]2N)cc1Nc1ccc2ccccc2n1 [Example 1.9, 5-{[(1R,2S)-2-aminocyclohexyl]amino}-3-(quinolin-2-ylamino)pyridine-2-carboxamide]
25 | < 0.01 | – | Cc1nc(Nc2cc(N[C@@H]3CCCC[C@@H]3N)cnc2C(N)=O)ccc1-c1cnn(C)c1 [Example 1.11, 5-{[(1R,2S)-2-aminocyclohexyl]amino}-3-{[6-methyl-5-(1-methyl-1H-pyrazol-4-yl)pyridin-2-yl]amino}pyridine-2-carboxamide]
26 | < 0.01 | – | Cc1cc(Cl)cc(Nc2cc(N[C@@H]3CCCC[C@@H]3N)cnc2C(N)=O)n1 [Example 1.12, 5-{[(1R,2S)-2-aminocyclohexyl]amino}-3-[(4-chloro-6-methylpyridin-2-yl)amino]pyridine-2-carboxamide]
27 | < 0.01 | – | COc1cccc(Nc2cc(N[C@@H]3CCCC[C@@H]3N)cnc2C(N)=O)n1 [Example 1.13, 5-{[(1R,2S)-2-aminocyclohexyl]amino}-3-[(6-methoxypyridin-2-yl)amino]pyridine-2-carboxamide]
28 | < 0.01 | – | NC(=O)c1ncc(N[C@@H]2CCCC[C@@H]2N)cc1Nc1cccc(-c2ccc3c(c2)CCO3)n1 [Example 1.15, 5-{[(1R,2S)-2-aminocyclohexyl]amino}-3-{[6-(2,3-dihydro-1-benzofuran-5-yl)pyridin-2-yl]amino}pyridine-2-carboxamide]
29 | < 0.01 | – | NC(=O)c1ncc(N[C@@H]2CCCC[C@@H]2N)cc1Nc1ccc2nccn2n1 [Example 1.17, 5-{[(1R,2S)-2-aminocyclohexyl]amino}-3-(imidazo[1,2-b]pyridazin-6-ylamino)pyridine-2-carboxamide]
30 | < 0.01 | – | Cc1nc(Nc2cc(N[C@@H]3CCCC[C@@H]3N)cnc2C(N)=O)ccc1F [Example 1.24, 5-{[(1R,2S)-2-aminocyclohexyl]amino}-3-[(5-fluoro-6-methylpyridin-2-yl)amino]pyridine-2-carboxamide]
31 | < 0.01 | – | NC(=O)c1ncc(N[C@@H]2CCCC[C@@H]2N)cc1Nc1cccc(-c2ccncc2)n1 [Example 1.27, 5-{[(1R,2S)-2-aminocyclohexyl]amino}-3-(2,4′-bipyridin-6-ylamino)pyridine-2-carboxamide]
32 | < 0.01 | – | NC(=O)c1ncc(N[C@@H]2CCCC[C@@H]2N)cc1Nc1cccc(-c2ccccc2)n1 [Example 1.28, 5-{[(1R,2S)-2-aminocyclohexyl]amino}-3-[(6-phenylpyridin-2-yl)amino]pyridine-2-carboxamide]
33 | < 0.01 | – | Cc1nc(Nc2cc(N[C@@H]3CCCC[C@@H]3N)cnc2C(N)=O)ccc1Br [Example 1.31, 5-{[(1R,2S)-2-aminocyclohexyl]amino}-3-[(5-bromo-6-methylpyridin-2-yl)amino]pyridine-2-carboxamide]
34 | 0.01 to 0.1 | – | Cn1ccc(Nc2cc(N[C@@H]3CCCC[C@@H]3N)cnc2C(N)=O)n1 [Example 1.33, 5-{[(1R,2S)-2-aminocyclohexyl]amino}-3-[(1-methyl-1H-pyrazol-3-yl)amino]pyridine-2-carboxamide]
